Among the data in patent US20230295201A1 (Gilead Sciences, Inc., priority 2020, published 2023) are EC50 values, retold here.

Like-named read-outs stand apart in the source and are kept apart here.

What all share (type): cell-based
One assay deals with HCV replicon 1B. The assay is described as follows: HCV Rep 1B EC50 (replicon luciferase). Here is the method:
(§1) Compounds were serially diluted in ten steps of 1:3 dilutions in 384-well plates. All serial dilutions were performed in four replicates per compound within the same 384-well plate. […] To each well of a black polystyrene 384-well plate (Greiner Bio-one, Monroe, NC), 90 μL of cell culture medium (without Geneticin) containing 2000 suspended HCV replicon cells was added with a Biotek μFlow workstation. For compound transfer into cell culture plates, 0.4 μL of compound solution from the compound serial dilution plate was transferred to the cell culture plate on a Biomek FX workstation. The DMSO concentration in the final assay wells was 0.44%. The plates were incubated for 3 days at 37° C. with 5% CO2 and 85% humidity. The HCV replicon assay was a multiplex assay, able to assess both cytotoxicity and antireplicon activity from the same well. The CC50 assay was performed first. The media in the 384-well cell culture plate was aspirated, and the wells were washed four times with 100 μL of PBS each, using a Biotek ELX405 plate washer. A volume of 50 μL of a solution containing 400 nM calcein AM (Anaspec, Fremont, CA) in 1×PBS was added to each well of the plate with a Biotek μFlow workstation. The plate was incubated for 30 min at room temperature before the fluorescence signal (excitation 490 nm, emission 520 nm) was measured with a Perkin-Elmer Envision plate reader. The EC50 assay was performed in the same wells as the CC50 assay. The calcein-PBS solution in the 384-well cell culture plate was aspirated with a Biotek ELX405 plate washer. A volume of 20 μL of Dual-Glo luciferase buffer (Promega, Madison, WI) was added to each well of the plate with a Biotek μFlow Workstation. The plate was incubated for 10 min at room temperature. A volume of 20 μL of a solution containing a 1:100 mixture of Dual-Glo Stop & Glo substrate (Promega, Madison, WI) and Dual-Glo Stop & Glo buffer (Promega, Madison, WI) was added to each well of the plate with a Biotek μFlow Workstation. The plate was then incubated at room temperature for 10 min before the luminescence signal was measured with a Perkin-Elmer Envision Plate Reader.

The subject of the next assay is HCV replicon 2A. As to the kind of experiment: HCV Rep 2A EC50 (replicon luciferase). The procedure:
as §1

Assay [1] has as its system Dengue 2, New Guinea strain (NGC). The assay is described as follows: DENV-2 moDC EC50 (qPCR in human monocyte-derived dendritic cells). The note with it: moDCs. Here is the method: Human monocyte-derived dendritic cells (moDCs) were derived from CD14+ monocytes (AllCells) cultured in Human Mo-DC Differentiation medium containing GM-CSF and IL-4 (Miltenyi Biotec). On day 7, moDCs were harvested by mechanical disruption, washed and suspended in serum-free RPMI. moDCs were infected with Vero-derived Dengue 2, New Guinea strain (NGC) at a MOI=0.1 for two hours in serum-free RPMI with gentle agitation at 37° C. Cells were washed and resuspended in 10% serum-containing RPMI (Gibco, supplemented with sodium pyruvate, NEAA, Penicillin-Streptomycin). 10^5 cells were plated in triplicate in 96-well plates with compounds dispensed at graded doses (Hewlett-Packard D300 Digital Dispenser). All wells were normalized to 0.25% DMSO. At 48 hours, cells were washed with 1×PBS and all supernatants removed. Total RNA was extracted using RNEasy 96 plates (Qiagen) and used to generate first-strand cDNA using XLT cDNA 5× Supermix (QuantaBio). cDNA was used as a template in a Taqman qPCR duplex reaction specific to DENV2 viral and GAPDH gene expression. EC50 values were determined using Prism Graphpad software, with normalization to a positive control and no compound negative control wells.

For assay [2], the system named is Dengue serotype 2 New Guinea C (NGC) strain. The assay is described as follows: DENV-2 Huh-7 EC50 (qPCR in Huh7 cells). Put shortly: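 Huh7 cells infected 2 h at 37 °C with DENV-2 NGC at MOI 0.1, then plated with graded compound doses (0.25% DMSO) in triplicate. After 48 h, viral RNA quantified by duplex TaqMan RT-qPCR against GAPDH; EC50 normalized to positive control and no-compound wells.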

Setting [3] is: Hepatitis C virus, 72 h, read-out: HCV Rep 1B EC50, replicon cells, 3 days.
[4] abbreviates: Hepatitis C virus, 72 h, read-out: HCV Rep 2A EC50, replicon cells, 3 days.
Where [5] appears, read: Dengue virus, DENV2, Dendritic cell, 48 h.
The mark [6] stands for this setting: Dengue virus, DENV2, Huh-7, 48 h.
[7] abbreviates: read-out: HCV Rep 1B EC50, replicon cells, 3 days.
[8] abbreviates: read-out: HCV Rep 2A EC50, replicon cells, 3 days.

Regarding `C[C@H](NP(=O)(OC[C@@]1(C#N)O[C@@H](c2ccc3c(N)ncnn23)[C@H](O)[C@@H]1O)Oc1ccccc1)C(=O)OC1CCCCC1` (stereo partly drawn) [Example 4, (2S)-cyclohexyl 2-(((((2R,3S,4R,5S)-5-(4-aminopyrrolo[2,1-f][1,2,4]triazin-7-yl)-2-cyano-3,4-dihydroxytetrahydrofuran-2-yl)methoxy)(phenoxy)phosphoryl)amino)propanoate], the figures for the EC50 in the assay with HCV replicon 1B (setting [3]) and in the assay on HCV replicon 2A (setting [4]) were 52700 nM and 9200 nM, respectively.
As for `C[C@H](NP(=O)(OC[C@@]1(C#N)O[C@@H](c2ccc3c(N)ncnn23)[C@H](O)[C@@H]1O)Oc1ccccc1)C(=O)OCCC(C)(C)C` (stereo partly drawn) [Example 251, 3,3-dimethylbutyl ((((2R,3S,4R,5S)-5-(4-aminopyrrolo[2,1-f][1,2,4]triazin-7-yl)-2-cyano-3,4-dihydroxytetrahydrofuran-2-yl)methoxy)(phenoxy)phosphoryl)-L-alaninate], the EC50 amounted to 116 nM in assay [1] (setting [5]), 529 nM in assay [2] (setting [6]), 595 nM in the assay on HCV replicon 1B (setting [3]) and 1110 nM with HCV replicon 2A (setting [4]).
On to `CCC(C)(C)COC(=O)[C@H](C)NP(=O)(OC[C@@]1(C#N)O[C@@H](c2ccc3c(N)ncnn23)[C@H](O)[C@@H]1O)Oc1ccccc1` (stereo partly drawn) [Example 254, 2,2-dimethylbutyl ((((2R,3S,4R,5S)-5-(4-aminopyrrolo[2,1-f][1,2,4]triazin-7-yl)-2-cyano-3,4-dihydroxytetrahydrofuran-2-yl)methoxy)(phenoxy)phosphoryl)-L-alaninate], for which the EC50 in assay [1] (setting [5]) turned out to be 90 nM; in assay [2] (setting [6]), 797 nM; in the assay with HCV replicon 1B (setting [3]), 368 nM; with HCV replicon 2A (setting [4]), 787 nM.
`C[C@H](NP(=O)(OC[C@@]1(C#N)O[C@@H](c2ccc3c(N)ncnn23)[C@H](O)[C@@H]1O)Oc1ccccc1)C(=O)OCCC(C)(C)C` (single isomer, unassigned) [Example 252]: the EC50 in assay [1] (setting [5]) is 284 nM; in assay [2] (setting [6]) it was 697 nM; with HCV replicon 1B (setting [3]), 624 nM; in the assay with HCV replicon 2A (setting [4]), 1650 nM.
For the compound `CCOC(=O)[C@H](C)N[P@](=O)(OC[C@@]1(C#N)O[C@@H](c2ccc3c(N)ncnn23)[C@H](O)[C@@H]1O)Oc1ccccc1` [Example 29, Ethyl ((S)-(((2R,3S,4R,5S)-5-(4-aminopyrrolo[2,1-f][1,2,4]triazin-7-yl)-2-cyano-3,4-dihydroxytetrahydrofuran-2-yl)methoxy)(phenoxy)phosphoryl)-L-alaninate], the results for the EC50 in assay [1] (setting [5]) and in assay [2] (setting [6]) were > 5000 nM and 1880 nM, respectively.
`COC(=O)[C@H](C)N[P@](=O)(OC[C@@]1(C#N)O[C@@H](c2ccc3c(N)ncnn23)[C@H](O)[C@@H]1O)Oc1ccccc1` [Example 52, methyl ((S)-(((2R,3S,4R,5S)-5-(4-aminopyrrolo[2,1-f][1,2,4]triazin-7-yl)-2-cyano-3,4-dihydroxytetrahydrofuran-2-yl)methoxy)(phenoxy)phosphoryl)-L-alaninate]: the EC50 in assay [2] (setting [6]) was determined as 5480 nM; with HCV replicon 1B (setting [3]), 3960 nM; in the assay on HCV replicon 2A (setting [4]), 7460 nM.
As for `CCC(CC)COC(=O)[C@H](CC)NP(=O)(OC[C@@]1(C#N)O[C@@H](c2ccc3c(N)ncnn23)[C@H](O)[C@@H]1O)Oc1ccccc1` (mixture of isomers) [Example 88, (2S)-2-ethylbutyl 2-(((((2R,3S,4R,5S)-5-(4-aminopyrrolo[2,1-f][1,2,4]triazin-7-yl)-2-cyano-3,4-dihydroxytetrahydrofuran-2-yl)methoxy)(phenoxy)phosphoryl)amino)butanoate], the EC50 in assay [2] (setting [6]) was > 25000 nM; in the assay with HCV replicon 1B (setting [3]), 23700 nM; in the assay on HCV replicon 2A (setting [4]), 27700 nM.
On to `C[C@H](NP(=O)(OC[C@@]1(C#N)O[C@@H](c2ccc3c(N)ncnn23)[C@H](O)[C@@H]1O)Oc1ccccc1)C(=O)OCC(C)(C)C` (stereo partly drawn) [Example 92, (2S)-neopentyl 2-(((((2R,3S,4R,5S)-5-(4-aminopyrrolo[2,1-f][1,2,4]triazin-7-yl)-2-cyano-3,4-dihydroxytetrahydrofuran-2-yl)methoxy)(phenoxy)phosphoryl)amino)propanoate], for which the EC50 is 16500 nM in the assay with HCV replicon 1B (setting [3]) and 2900 nM in the assay on HCV replicon 2A (setting [4]).
Turning to `C[C@H](NP(=O)(OC[C@@]1(C#N)O[C@@H](c2ccc3c(N)ncnn23)[C@H](O)[C@@H]1O)Oc1ccccc1)C(=O)OCC1CCCCC1` (single isomer, unassigned) [Example 247], the values for the EC50 (in assay [2] (setting [6]); in the assay with HCV replicon 1B (setting [3]); with HCV replicon 2A (setting [4])) were 1280 nM, 665 nM and 1680 nM, respectively.
On to `C[C@H](N[P@](=O)(OC[C@@]1(C#N)O[C@@H](c2ccc3c(N)ncnn23)[C@H](O)[C@@H]1O)Oc1ccccc1)C(=O)OCC(C)(C)C` [Example 94], for which the EC50 in assay [1] (48 hours) was 398 nM; in assay [2] (48 hours) it was 451 nM; on HCV replicon 1B (replicon cells, 3 days, read-out: HCV Rep 1B EC50), 278 nM; on HCV replicon 2A (replicon cells, 3 days, read-out: HCV Rep 2A EC50) it was 493 nM.
Turning to `CCCCCCOC(=O)[C@H](C)NP(=O)(OC[C@@]1(C#N)O[C@@H](c2ccc3c(N)ncnn23)[C@H](O)[C@@H]1O)Oc1ccccc1` (stereo partly drawn) [Example 192, hexyl ((((2R,3S,4R,5S)-5-(4-aminopyrrolo[2,1-f][1,2,4]triazin-7-yl)-2-cyano-3,4-dihydroxytetrahydrofuran-2-yl)methoxy)(phenoxy)phosphoryl)-L-alaninate], the EC50 in assay [1] (setting [5]) was found to be 534 nM; in assay [2] (setting [6]), 2760 nM.
On to `C[C@H](NP(=O)(OC[C@@]1(C#N)O[C@@H](c2ccc3c(N)ncnn23)[C@H](O)[C@@H]1O)Oc1cccc2ccccc12)C(=O)OC1CCCCC1` (stereo partly drawn) [Example 203, cyclohexyl ((((2R,3S,4R,5S)-5-(4-aminopyrrolo[2,1-f][1,2,4]triazin-7-yl)-2-cyano-3,4-dihydroxytetrahydrofuran-2-yl)methoxy)(naphthalen-1-yloxy)phosphoryl)-L-alaninate], for which the EC50 in assay [1] (setting [5]) stood at 599 nM; in assay [2] (setting [6]), 1730 nM; with HCV replicon 1B (setting [3]), 332 nM; with HCV replicon 2A (setting [4]), 671 nM.
For `C[C@H](NP(=O)(OC[C@@]1(C#N)O[C@@H](c2ccc3c(N)ncnn23)[C@H](O)[C@@H]1O)Oc1ccccc1)C(=O)OCCC(C)(C)C` (single isomer, unassigned) [Example 253], the EC50 worked out at 429 nM in assay [1] (48 hours), 489 nM in assay [2] (48 hours), 452 nM in the assay with HCV replicon 1B (setting [7]) and 887 nM in the assay on HCV replicon 2A (setting [8]).
As for `C[C@H](NP(=O)(OC[C@@]1(C#N)O[C@@H](c2ccc3c(N)ncnn23)[C@H](O)[C@@H]1O)Oc1ccccc1)C(=O)OCC1CCCCC1` (single isomer, unassigned) [Example 248], the EC50 in assay [2] (48 hours) is 756 nM; in the assay with HCV replicon 1B (setting [7]), 503 nM; in the assay on HCV replicon 2A (setting [8]), 1180 nM.
